Patent publication US7101878B1 (Agouron Pharmaceuticals, Inc., priority 1998, dated 2006)

Legend:
[1] = Metabolism rate, pmol/min/mg at 1 μM, rat female; assay type: in vitro ADME; details: 1 μM compound
[2] = tested on: testosterone levels in intact male rats; test: Intact male rat, testosterone suppression; assay type: in vivo
Excerpt: (§1) Testosterone is a hormone regulated by the hypothalamic-pituitary-gonadal axis. GnRH is secreted in pulses from the hypothalamus and stimulates the anterior pituitary gland to release gonadotropic hormones LH and FSH. Testosterone is produced when the testes are stimulated by LH. The quantity of testosterone secreted increases approximately in direct proportion to the amount of LH available (Guyton, 1986).
(§2) Male Sprague-Dawley (250-275 g) rats were single-housed and allowed to acclimate for 1 week prior to study. On study day animals were dosed with vehicle or test compound by various routes of administration, including ip, sc, or po. Blood samples were obtained via cardiac puncture under halothane anesthesia from individual animals at predetermined time points post treatment. Blood samples were drawn into heparin containing tubes. Blood was centrifuged immediately, plasma collected and stored in −20° freezer until assayed. Plasma samples were analyzed using DSL-4000 ACTIVE Testosterone coated-tube raduioimmunoassay kit from Diagnostic Systems Laboratories, Inc.
(§3) Male Sprague-Dawley (250-275 g) rats were single-housed and allowed to acclimate for 1 week prior to study. We developed a technique to allow for repeated sampling from the jugular vein by using microrenathane (MRE) catheters implanted 7 days prior to study. Details of the surgical procedure have been described previously {Harms and Ojeda, 1974}. On study day, animals were allowed to acclimate to the procedure room while residing in their home cage. Basal blood samples were drawn from all animals. Immediately following basal sampling, vehicle or test compounds were administered by various routes. The routes of administration employed were intravenous (iv), intramuscular (im), and oral (po). Blood samples were drawn into heparin containing tubes at multiple time points post treatment. Blood was centrifuged immediately, plasma collected and stored in −20° freezer until assayed. Plasma samples were analyzed using DSL-4000 ACTIVE Testosterone coated-tube raduioimmunoassay kit from Diagnostic Systems Laboratories, Inc.
(§4) Male Sprague-Dawley (250-275 g) rats were double-housed and allowed to acclimate for 1 week prior to study. Daily vehicle treatments were administered either, im, sc, or po between 8:00 and 9:00 am for seven days. On day 8 between 8:00 and 9:00 am, blood samples were drawn via cardiac puncture under halothane anesthesia. The procedure was complete in 45-60 seconds. Over the next 7 days one groups of animals continued to receive vehicle treatments while another group of animals received no treatment. Samples were collected as described above following the 7th day of this treatment regimen. Testosterone levels were not different between vehicle treated animals and untreated animals.
(§5) Daily im dosing of Compound 134 (100 mg/kg) or vehicle was performed between 8:00 and 9:00 am for seven days. Samples were collected as described above following the 7th day of treatment.
(§6) All blood samples were collected in heparin containing tubes. Blood was centrifuged immediately, plasma collected and stored in −20° freezer until assayed the next day. Plasma samples were analyzed using DSL-4000 ACTIVE Testosterone coated-tube raduioimmunoassay kit from Diagnostic Systems Laboratories, Inc.

[3] = Metabolism rate, pmol/min/mg at 1 μM, dog; assay type: in vitro ADME; details: 1 μM compound
[4] = molecular target: LTB4 (Homo sapiens, UniProt Q15722); test: biochemical
[5] = molecular target: RXRα Retinoid (Homo sapiens, UniProt P19793); test: biochemical
[6] = molecular target: NK3 (Homo sapiens, UniProt P29371); test: biochemical
NK3, sequence (P29371 whole entry): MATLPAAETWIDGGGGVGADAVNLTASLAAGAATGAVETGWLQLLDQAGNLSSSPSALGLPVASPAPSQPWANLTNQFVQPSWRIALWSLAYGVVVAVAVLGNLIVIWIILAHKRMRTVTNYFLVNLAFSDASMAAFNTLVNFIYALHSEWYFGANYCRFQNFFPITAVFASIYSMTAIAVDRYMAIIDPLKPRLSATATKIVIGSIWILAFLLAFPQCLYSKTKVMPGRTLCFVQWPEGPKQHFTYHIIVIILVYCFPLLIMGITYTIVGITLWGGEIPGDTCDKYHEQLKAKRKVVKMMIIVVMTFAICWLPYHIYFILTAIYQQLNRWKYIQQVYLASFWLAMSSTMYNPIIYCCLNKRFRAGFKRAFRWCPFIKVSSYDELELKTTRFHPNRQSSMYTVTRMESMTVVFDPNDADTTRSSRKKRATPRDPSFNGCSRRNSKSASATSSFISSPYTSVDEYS

[7] = tested on: rat mast cells; test: Selectivity: Basal Histamine Release (rat mast cells); details: Mast cell, read-out: Basal Histamine Release (rat mast cells) EC50
[8] = molecular target: ET-A (Homo sapiens, UniProt P25101); test: biochemical
[9] = molecular target: Serotonin Transporter (Homo sapiens, UniProt P31645); test: Selectivity: Serotonin Transporter
[10] = molecular target: MAO-A (Homo sapiens, UniProt P21397); test: Selectivity: MAO-A
MAO-A, sequence (P21397 whole entry, species assumed): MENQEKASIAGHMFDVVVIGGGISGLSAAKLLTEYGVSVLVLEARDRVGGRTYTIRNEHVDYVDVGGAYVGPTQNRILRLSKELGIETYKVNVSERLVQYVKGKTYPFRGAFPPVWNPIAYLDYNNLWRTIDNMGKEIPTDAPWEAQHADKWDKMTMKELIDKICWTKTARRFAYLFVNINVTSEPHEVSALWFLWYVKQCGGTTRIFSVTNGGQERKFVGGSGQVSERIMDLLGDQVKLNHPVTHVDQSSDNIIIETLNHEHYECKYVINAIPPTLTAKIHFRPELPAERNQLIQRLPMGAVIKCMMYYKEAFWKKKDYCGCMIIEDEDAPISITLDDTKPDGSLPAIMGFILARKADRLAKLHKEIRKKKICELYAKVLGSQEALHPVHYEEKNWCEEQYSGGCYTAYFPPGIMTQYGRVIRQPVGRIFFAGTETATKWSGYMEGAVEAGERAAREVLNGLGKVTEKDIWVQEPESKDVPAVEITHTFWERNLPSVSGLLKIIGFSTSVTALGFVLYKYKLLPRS

[11] = molecular target: Choline Acetyltransferase (Homo sapiens, UniProt P28329); test: biochemical
Choline Acetyltransferase, sequence (P28329 whole entry): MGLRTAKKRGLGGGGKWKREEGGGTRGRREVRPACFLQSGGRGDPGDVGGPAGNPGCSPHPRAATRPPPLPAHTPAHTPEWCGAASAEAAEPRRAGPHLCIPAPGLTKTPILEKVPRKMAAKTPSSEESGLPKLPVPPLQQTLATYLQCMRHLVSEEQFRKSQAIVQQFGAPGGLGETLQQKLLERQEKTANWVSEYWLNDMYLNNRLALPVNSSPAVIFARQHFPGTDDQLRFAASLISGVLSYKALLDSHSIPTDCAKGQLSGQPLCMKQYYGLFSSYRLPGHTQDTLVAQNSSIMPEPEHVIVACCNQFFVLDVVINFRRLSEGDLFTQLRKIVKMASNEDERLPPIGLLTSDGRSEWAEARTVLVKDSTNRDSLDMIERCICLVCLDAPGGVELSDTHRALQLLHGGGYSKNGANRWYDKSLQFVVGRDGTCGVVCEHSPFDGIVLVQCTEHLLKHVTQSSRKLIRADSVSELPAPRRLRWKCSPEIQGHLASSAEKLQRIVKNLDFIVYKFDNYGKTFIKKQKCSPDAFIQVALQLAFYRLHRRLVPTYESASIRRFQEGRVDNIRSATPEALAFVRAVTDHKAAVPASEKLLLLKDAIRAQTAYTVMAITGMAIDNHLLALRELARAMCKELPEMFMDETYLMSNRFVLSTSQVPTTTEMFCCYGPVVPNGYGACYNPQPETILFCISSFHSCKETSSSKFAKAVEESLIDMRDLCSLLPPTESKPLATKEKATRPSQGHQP

[12] = molecular target: TXA2 (Homo sapiens, UniProt P21731); test: biochemical
TXA2, sequence (P21731 whole entry): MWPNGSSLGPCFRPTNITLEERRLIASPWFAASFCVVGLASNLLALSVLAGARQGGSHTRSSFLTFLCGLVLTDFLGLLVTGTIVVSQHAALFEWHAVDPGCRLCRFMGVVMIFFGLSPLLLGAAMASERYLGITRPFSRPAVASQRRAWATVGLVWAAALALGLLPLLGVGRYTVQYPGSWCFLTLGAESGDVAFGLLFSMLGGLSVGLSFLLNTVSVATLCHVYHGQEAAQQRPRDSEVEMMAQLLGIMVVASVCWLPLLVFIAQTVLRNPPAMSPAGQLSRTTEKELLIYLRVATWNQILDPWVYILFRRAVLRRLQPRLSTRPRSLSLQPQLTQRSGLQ

[13] = molecular target: CYP3A4 Cytochrome P450 (Homo sapiens, UniProt P08684)
CYP3A4 Cytochrome P450, sequence (P08684 whole entry): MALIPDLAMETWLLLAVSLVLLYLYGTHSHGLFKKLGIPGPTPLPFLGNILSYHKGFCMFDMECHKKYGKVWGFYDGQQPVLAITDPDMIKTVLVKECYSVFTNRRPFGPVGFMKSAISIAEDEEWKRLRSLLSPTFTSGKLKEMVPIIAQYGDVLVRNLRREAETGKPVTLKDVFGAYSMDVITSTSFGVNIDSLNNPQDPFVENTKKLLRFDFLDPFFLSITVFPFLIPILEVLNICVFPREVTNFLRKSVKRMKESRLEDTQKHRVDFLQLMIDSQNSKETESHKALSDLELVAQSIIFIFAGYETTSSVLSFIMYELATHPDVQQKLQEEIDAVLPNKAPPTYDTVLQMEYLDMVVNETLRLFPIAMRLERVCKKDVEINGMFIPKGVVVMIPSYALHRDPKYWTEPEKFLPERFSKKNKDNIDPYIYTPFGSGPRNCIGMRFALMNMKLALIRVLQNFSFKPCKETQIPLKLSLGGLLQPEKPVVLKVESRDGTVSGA

[14] = molecular target: MAO-B (Homo sapiens, UniProt P27338); test: Selectivity: MAO-B
MAO-B, sequence (P27338 whole entry, species assumed): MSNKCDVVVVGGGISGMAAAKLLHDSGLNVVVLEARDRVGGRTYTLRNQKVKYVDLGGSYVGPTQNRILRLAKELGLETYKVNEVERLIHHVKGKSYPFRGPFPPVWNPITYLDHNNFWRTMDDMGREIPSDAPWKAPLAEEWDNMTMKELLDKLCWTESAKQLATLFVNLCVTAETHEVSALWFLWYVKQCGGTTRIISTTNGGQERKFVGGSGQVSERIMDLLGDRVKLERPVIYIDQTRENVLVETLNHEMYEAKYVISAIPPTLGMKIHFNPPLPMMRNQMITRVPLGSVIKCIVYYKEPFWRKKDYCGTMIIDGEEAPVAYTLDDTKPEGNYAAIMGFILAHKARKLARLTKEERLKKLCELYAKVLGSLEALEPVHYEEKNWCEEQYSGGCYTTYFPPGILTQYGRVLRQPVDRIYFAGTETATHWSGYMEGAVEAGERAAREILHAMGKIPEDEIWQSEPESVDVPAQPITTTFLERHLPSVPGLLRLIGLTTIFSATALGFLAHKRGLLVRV

[15] = molecular target: TRH (Homo sapiens, UniProt P34981); test: biochemical
TRH, sequence (P34981 whole entry): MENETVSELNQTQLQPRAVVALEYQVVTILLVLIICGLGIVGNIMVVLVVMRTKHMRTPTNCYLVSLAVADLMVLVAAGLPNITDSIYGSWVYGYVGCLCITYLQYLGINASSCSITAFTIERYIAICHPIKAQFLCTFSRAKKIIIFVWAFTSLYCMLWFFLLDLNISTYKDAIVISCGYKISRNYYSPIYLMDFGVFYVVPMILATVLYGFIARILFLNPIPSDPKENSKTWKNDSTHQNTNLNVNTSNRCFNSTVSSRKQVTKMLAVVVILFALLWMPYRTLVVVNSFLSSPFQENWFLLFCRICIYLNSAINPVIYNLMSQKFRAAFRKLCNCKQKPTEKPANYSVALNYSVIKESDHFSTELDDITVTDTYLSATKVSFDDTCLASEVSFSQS

[16] = molecular target: RARγ Retinoid (Homo sapiens, UniProt P13631); test: biochemical
[17] = molecular target: NK2 (Homo sapiens, UniProt P21452); test: biochemical
NK2, sequence (P21452 whole entry): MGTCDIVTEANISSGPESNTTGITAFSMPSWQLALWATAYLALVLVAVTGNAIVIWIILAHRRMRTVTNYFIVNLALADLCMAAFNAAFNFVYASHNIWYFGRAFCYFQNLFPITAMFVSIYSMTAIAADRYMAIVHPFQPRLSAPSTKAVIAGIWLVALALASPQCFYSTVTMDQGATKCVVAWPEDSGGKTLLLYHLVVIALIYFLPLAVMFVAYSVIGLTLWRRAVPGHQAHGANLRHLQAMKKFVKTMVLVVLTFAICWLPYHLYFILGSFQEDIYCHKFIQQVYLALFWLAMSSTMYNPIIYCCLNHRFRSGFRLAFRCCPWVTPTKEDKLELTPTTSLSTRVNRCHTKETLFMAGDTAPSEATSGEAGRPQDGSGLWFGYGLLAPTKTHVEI

[18] = molecular target: AchE (Homo sapiens, UniProt P22303); test: Selectivity: AchE
AchE, sequence (P22303 32-614): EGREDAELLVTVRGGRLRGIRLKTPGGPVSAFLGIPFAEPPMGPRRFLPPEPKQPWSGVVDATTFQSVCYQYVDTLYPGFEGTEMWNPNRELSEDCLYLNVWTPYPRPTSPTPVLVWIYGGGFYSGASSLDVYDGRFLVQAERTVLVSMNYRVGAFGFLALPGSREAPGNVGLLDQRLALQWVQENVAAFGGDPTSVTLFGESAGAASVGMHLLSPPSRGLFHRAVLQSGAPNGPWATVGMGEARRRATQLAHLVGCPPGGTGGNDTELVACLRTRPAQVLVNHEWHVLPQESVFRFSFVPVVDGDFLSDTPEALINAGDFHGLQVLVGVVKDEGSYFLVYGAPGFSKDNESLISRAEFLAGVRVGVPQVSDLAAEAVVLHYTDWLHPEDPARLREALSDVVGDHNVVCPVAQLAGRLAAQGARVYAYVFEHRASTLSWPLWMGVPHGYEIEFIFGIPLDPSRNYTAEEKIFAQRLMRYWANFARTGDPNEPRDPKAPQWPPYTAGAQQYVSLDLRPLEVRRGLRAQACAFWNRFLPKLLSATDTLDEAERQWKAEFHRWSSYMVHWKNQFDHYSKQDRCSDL

[19] = molecular target: M2 Muscarinic (Homo sapiens, UniProt P08172); test: Selectivity: M2 Muscarinic
M2 Muscarinic, sequence (P08172 whole entry): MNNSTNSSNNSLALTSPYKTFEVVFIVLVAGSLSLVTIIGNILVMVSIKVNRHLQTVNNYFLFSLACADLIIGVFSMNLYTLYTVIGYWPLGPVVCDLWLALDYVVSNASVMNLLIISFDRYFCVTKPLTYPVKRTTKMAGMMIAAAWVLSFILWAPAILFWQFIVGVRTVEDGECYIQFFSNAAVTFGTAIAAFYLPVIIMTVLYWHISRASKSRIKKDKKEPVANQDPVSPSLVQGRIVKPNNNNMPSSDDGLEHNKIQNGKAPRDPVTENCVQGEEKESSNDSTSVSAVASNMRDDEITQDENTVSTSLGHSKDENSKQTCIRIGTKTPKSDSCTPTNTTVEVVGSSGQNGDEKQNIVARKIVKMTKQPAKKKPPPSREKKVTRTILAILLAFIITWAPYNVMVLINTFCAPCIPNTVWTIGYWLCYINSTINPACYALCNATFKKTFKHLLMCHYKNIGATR

[20] = molecular target: H1 Histamine (Homo sapiens, UniProt P35367); test: Selectivity: H1 Histamine
[21] = molecular target: Oxytocin (Homo sapiens, UniProt P30559); test: biochemical
[22] = Intact male rat, testosterone suppression; assay type: in vivo; details: male, Sprague-Dawley, rat, plasma, intramuscular; 100 mg/kg im*, 7 days; read-out: Range of Plasma Conc.
Excerpt: as §1, §2, §3, §4, §5, §6

Structure (SMILES): COc1cc(OC)c(NC(=O)c2ccc(Cc3cc(C(C)(C)C)ccc3C)o2)c(OC)c1 [Compound 200]
- Rat female pmol/min/mg 1 μM [1]: 86 pmol/min/mg

Structure (SMILES): Cc1cc2c(cc1Cc1ccc(C(=O)NCc3cccc(CNc4ccnc(NC[C@@H]5CCCO5)n4)c3)o1)C(C)(C)CCC2(C)C [Compound 136]
- Rat female pmol/min/mg 1 μM [1]: 271 pmol/min/mg
- % Testosterone suppression ([2]; 20 mg/kg ip): 72%
- Range of Plasma Conc. ([2]; 20 mg/kg ip): 0.4 µM
- Suppression Duration ([2]; 20 mg/kg ip): 6 h
- time of % Testosterone suppression ([2]; 20 mg/kg ip): 6 h
- % Testosterone suppression ([2]; 40 mg/kg po): 46%
- Range of Plasma Conc. ([2]; 40 mg/kg po): 0.34 µM
- Suppression Duration ([2]; 40 mg/kg po): 4 h
- time of % Testosterone suppression ([2]; 40 mg/kg po): 4 h
- testosterone levels ([2]; 6 hours post ip injection, vs vehicle, p<0.05): suppressed testosterone levels
- Dog pmol/min/mg 1 μM [3]: 3071 pmol/min/mg

Structure (SMILES): COc1cccc(OC)c1NC(=O)c1ccc(Cc2cc3c(cc2C)C(C)(C)CCC3(C)C)o1 [Compound 20]
- Ki [4]: > 1000 nM
- Ki [5]: > 10 µM
- Ki [6]: 1000 to 5000 nM
- EC50 [7]: > 10 µM
- Ki [8]: > 1000 nM
- Ki [9]: > 1000 nM
- Ki [10]: > 1000 nM
- Ki [11]: > 1000 nM
- Ki [12]: > 1000 nM
- IC50 [13]: 1700 nM
- Ki [14]: > 1000 nM
- Ki [15]: > 1000 nM
- Ki [16]: > 10 µM
- Ki [17]: > 1000 nM
- Ki [18]: > 1000 nM
- Ki [19]: > 1000 nM
- Ki [20]: > 1000 nM
- Ki [21]: > 1000 nM

Structure (SMILES): COc1cc(OC)c(NC(=O)c2ccc(Cc3cc4c(cc3C)CCCC4(C)C)o2)c(OC)c1 [Compound 183]
- Rat female pmol/min/mg 1 μM [1]: 64 pmol/min/mg

Structure (SMILES): Cc1cc2c(cc1Cc1ccc(C(=O)NCc3nc4ccccc4[nH]3)o1)C(C)(C)CCC2(C)C [Compound 48]
- Rat female pmol/min/mg 1 μM [1]: 135 pmol/min/mg

Structure (SMILES): COc1cc(OC)c(NC(=O)c2ccc(Cc3cc4c(cc3C)C(C)(C)CCC4(C)C)o2)c(OC)c1C#N [Compound 177]
- Dog pmol/min/mg 1 μM [3]: 2456 pmol/min/mg

Structure (SMILES): COc1cc(OC)c(NC(=O)c2ccc(Cc3cc4c(cc3C)C(C)(C)CCC4(C)C)o2)c(OC)c1 [Compound 134]
- Rat female pmol/min/mg 1 μM [1]: 94 pmol/min/mg
- concentration at 7 days [22]: 1300 nM
- % Testosterone suppression ([2]; 20 mg/kg ip): 36%
- Range of Plasma Conc. ([2]; 20 mg/kg ip): 0.2 µM
- Suppression Duration ([2]; 20 mg/kg ip): 4 h
- time of % Testosterone suppression ([2]; 20 mg/kg ip): 4 h
- Range of Plasma Conc. ([2]; 20 mg/kg po, @ 1 hr): 1.1 @ 1 hr μM
- Range of Plasma Conc. ([2]; 20 mg/kg po, @ 2 hr): 0.15 @ 2 hr μM
- Range of Plasma Conc. ([2]; 20 mg/kg po, @ 4 hr): 0.17 @ 4 hr μM
- % Testosterone suppression ([2]; 50 mg/kg po): 75%
- Suppression Duration ([2]; 50 mg/kg po): 8 h
- time of % Testosterone suppression ([2]; 50 mg/kg po): 4 h
- % Testosterone suppression ([2]; 100 mg/kg im*, 7 days): 80%
- Suppression Duration ([2]; 100 mg/kg im*, 7 days): 12 h
- time of % Testosterone suppression ([2]; 100 mg/kg im*, 7 days): 12 h
- % Testosterone suppression ([2]; 100 mg/kg po): 80%
- Suppression Duration ([2]; 100 mg/kg po): 12 h
- time of % Testosterone suppression ([2]; 100 mg/kg po): 6 h
- % Testosterone suppression ([2]; 100 mg/kg sc): 60%
- Range of Plasma Conc. ([2]; 100 mg/kg sc): 0.13 µM
- Suppression Duration ([2]; 100 mg/kg sc): 24 h
- time of % Testosterone suppression ([2]; 100 mg/kg sc): 24 h
- testosterone levels ([2]; 7 days of repeated treatment, 100 mg/kg im daily, p<0.05): significantly suppressed testosterone levels
- testosterone levels ([2]; oral gavage, highest dose, 12 hour time course and 24 hour time point): suppressed testosterone throughout the course of the study
- Dog pmol/min/mg 1 μM [3]: 2159 pmol/min/mg

Structure (SMILES): COc1cc(OC)c(NC(=O)c2ccc(Cc3cc4c(cc3OC)C(C)(C)CCC4(C)C)o2)c(OC)c1 [Compound 169]
- Dog pmol/min/mg 1 μM [3]: 2301 pmol/min/mg
